Test results: patent publication US20020098248A1, “Method for treating and/or preventing infections caused by methicillin-resistant Staphylococcus aureus” (priority 2000, published 2002)

Tested on: Staphylococcus, particularly MRSA
Assay: Examination of catechin for antimicrobial effect
Format: cell-based
Details: catechin only, even if it has a high concentration

## catechin
  antimicrobial effect against Staphylococcus, particularly MRSA: does not provide a desired antimicrobial effect
